Source: publication PMC11493283, “N^4-Hydroxycytidine/molnupiravir inhibits RNA virus-induced encephalitis by producing less fit mutated viruses” (PLOS Pathogens, 2024)

Tests used:
Cache Valley virus (CVV) = assay: Antiviral efficacy against Cache Valley virus in Vero cells, plaque assay; assay type: cell-based; details: 24 hpi, read-out: EC50 infectious virus production
Procedure: (§1) Cells were seeded in 24-well plates (1 × 10^5 cells/well) and infected with LACV (0.1 MOI). At 1 hour post infection (hpi), medium was replaced with fresh medium containing 6 different concentrations for each of the drugs. RBV and FAV were tested at concentrations of 1, 3, 10, 30, 100, and 300 μM, while NHC was tested at concentrations of 0.1, 0.3, 1, 3, 10 and 30 μM. DMSO was used as vehicle control. At 24 hpi, the cell supernatant was harvested, centrifuged to eliminate cell debris and stored at −80 °C for sequencing (described below) and plaque assay following the method of Ojha et al. 2021 [32]. Quantified virus titers were plotted to represent antiviral efficacy. The EC50 (50% effective concentration representing a 50% reduction in virus titer) was determined by extrapolating a dose-response curve using GraphPad Prism 8 and 9.
(§2) We also evaluated the ability of NHC to inhibit the replication of two other orthobunyaviruses, Cache Valley virus (CVV) and Jamestown Canyon (JCV). JCV belongs to the same serogroup as LACV but causes neurological disease in both children and adults. CVV is a member of the Bunyamwera serogroup and is the most common orthobunyavirus in the United States. Infections were done following the same protocol as for Fig 1. […] Thus, NHC inhibited virus replication for multiple orthobunyaviruses in different serogroups with similar potency.

LACV [1] = assay: MPID-NGS mutation rate of LACV in cell culture; assay type: cell-based, La Crosse virus; details: Vero cells; RBV, FAV: increase only at 100 μM; NHC also in hNSCs and N2a
Procedure: as §1
We used a Primer ID (PID) library preparation approach with Illumina MiSeq next-generation sequencing (NGS) to examine the mutagenic effects of these drugs on viral RNA allowing deep coverage of the viral population while maintaining a low method error rate (1 in 10,000 nucleotides). We designed cDNA primers targeting a 372 bp region of the RdRp gene within the L segment (referred as L7 in the study), and included a second amplicon covering a 455 bp portion of the M segment (referred as M4 in the study). Each cDNA primer included a block of random nucleotides (11 bases long) as the Primer ID/unique molecular identifier (UMI). […] After gel purification/extraction of the PCR product (Qiagen MinElute Gel Extraction kit), the extracted libraries were quantified using a Qubit fluorimeter and subjected to Agilent TapeStation analysis. For each sequencing run, 24 quantified libraries were pooled for MiSeq 300 base paired-end sequencing at the UNC High Throughput Sequencing Facility. […] Each type of substitution rate was calculated against the wildtype sequence at the sequenced regions. The sequencing date were submitted to the National Center for Biotechnology Information (NCBI) Sequence Read Archive (SRA), accession number is PRJNA1092655.

LACV [2] = assay: Antiviral efficacy against LACV in hNSCs, virus titer by plaque assay; assay type: cell-based; details: La Crosse virus, LACV 0.1 MOI, 24 hpi, read-out: EC50 (50% reduction in virus titer)
Procedure: as §1

LACV [3] = assay: Serial passage of LACV in presence of NHC in Vero cells (resistance selection); assay type: cell-based, La Crosse virus; details: for EC50: La Crosse virus, Vero cells
Procedure: as §1
We used a digital scanner to scan the plaque assay plates. Digitized images were imported into FIJI/ImageJ v1.52n, and pixel calibration values were calculated based on the well diameter and corresponding digitized image. To quantify plaque size (surface area), wells with clearly isolated plaques were selected for segmentation and analysis. The image lookup table for each well was inverted followed by binarization prior to analysis, with a minimum area of 0.39 mm^2 to eliminate false positives due to slight variations in crystal violet staining. The measurements were imported into Microsoft Excel for data compilation, and graphed and analyzed using GraphPad Prism v9.3.1. Analysis of plaque size was done only when the plaque assays for different virus samples were done in parallel.
Vero cells were seeded at 5×10^5 cells/well in a 6-well plate for each passage. For the first passage, Vero cells were infected with LACV at MOIs of 10, 0.1, and 0.001 in 3 ml of medium, and treated with 0.1 μM of NHC or DMSO vehicle control. After 3 dpi, the virus inoculum was harvested from wells where more than 25% of cells were still attached to the well (using light microscopy). The harvested supernatants were centrifuged to clarify dead cells and then used to reinfect Vero cells at dilutions of 1:1,000, 1:100,000, and 1:10,000,000 and treated with 0.1 μM NHC for the first series of 5 passages where at each passage the culture with the highest dilution of virus that still gave rise to incomplete CPE (i.e. 25% of the cells still attached) was saved for the next passage. Second, third, and fourth series of 5 passages were treated with 0.2, 0.4 and 0.8 μM of NHC, respectively. After 20 passages in total, virus suspensions were collected, centrifuged, and frozen at −80°C to perform dose-dependent antiviral activity and plaque assays for virus titers (as described above).

LACV [4] = assay: Antiviral efficacy against LACV in N2a cells, virus titer by plaque assay; assay type: cell-based; details: La Crosse virus, LACV 0.1 MOI, 24 hpi, read-out: EC50 (50% reduction in virus titer)
Procedure: as §1

Jamestown Canyon (JCV) = assay: Antiviral efficacy against Jamestown Canyon virus in Vero cells, plaque assay; assay type: cell-based; details: 24 hpi, read-out: EC50 infectious virus production
Procedure: as §1, §2

in vitro = assay type: cell-based; details: MTT, 24h
Procedure: Method: Cells were seeded in 96-well plates (1-2x10^4 cells/well) after attachment different concentrations of each drug containing fresh media were added to each well, in triplicate. DMSO was used as a control. At 24h post-treatment, MTT assays were carried out according to the manufacturer’s instructions (Invitrogen, ThermoFisher Scientific). The absorbance was measured using the Synergy 4 cell plate reader (BioTek) at 540 nm. This assay was used to estimate the drug-induced cytotoxicity using the following formula: (sample absorbance/DMSO absorbance) × 100%. The CC50 (50% cytotoxic concentration) was determined by extrapolating the dose–response curve.

LACV [5] = assay: Antiviral efficacy against LACV in Vero cells, virus titer by plaque assay; assay type: cell-based; details: La Crosse virus, LACV 0.1 MOI, 24 hpi, read-out: EC50 (50% reduction in virus titer)
Procedure: as §1

[6] = African green monkey, Vero cells

| SMILES | EC50 (Cache Valley virus (CVV)) [µM] | mutation rate of LACV grown in presence of drug (LACV [1]) | EC50 (LACV [2]) [µM] | EC50 (LACV [3]; after 20 passages with 0.1 to 0.8 μM NHC, read-out: EC50 against NHC-selected LACV) [µM] | EC50 (LACV [3]; after 20 passages, read-out: EC50 against control (DMSO) passaged LACV) [µM] | supernatant virus titer at end of selection lower than control passaged virus (LACV [3]; passage 20) | average plaque size of virus passaged with NHC vs DMSO control (LACV [3]; passage 20 virus stocks) | EC50 (LACV [4]) [µM] | EC50 (Jamestown Canyon (JCV)) [µM] | CC50 (in vitro; [6]) [µM] | CC50 (in vitro; human, hNSCs) [µM] | EC50 (LACV [5]) [µM] |
| --- | --- | --- | --- | --- | --- | --- | --- | --- | --- | --- | --- | --- |
| O=c1nc(NO)ccn1[C@@H]1O[C@H](CO)[C@@H](O)[C@H]1O [NHC, N^4-hydroxycytidine] | 0.25 | dose-dependent relationship | 1.2 | 0.49 | 0.5 | approximately 15 fold | significantly smaller | 1.5 | 0.3 | 203 | 132 | 0.57 |
| NC(=O)c1ncn([C@@H]2O[C@H](CO)[C@@H](O)[C@H]2O)n1 [RBV, ribavirin] | – | did not see a significant increase in mutation rates | 27.7 | – | – | – | – | 3.8 | – | 1780 | 1260 | 42.7 |
